The record followed here is patent US9877973B2, “Intraocular drug delivery device and associated methods” (University of Utah Research Foundation, priority 2008, dated 2018).

Where two headings read alike, the source gives them in different places.

The nature of series [1]: AVASTIN-loaded intraocular device, ocular tissue concentration by ELISA. Type of series: in vivo, New Zealand white rabbits. As to conditions: 1 week post implantation of AVASTIN-loaded intraocular device. From the text: Three intraocular devices were implanted into eyes of New Zealand white rabbits under general anesthesia after lens extraction (phacoemulsification technique). Two of the devices were loaded with AVASTIN® and one was loaded with the contrast agent Galbumin as a control. Proper intraocular device position was verified by MRI as well as clinical examination.
The rabbits were sacrificed and the eyes are removed and assayed after 1 week post implantation. AVASTIN® was detected by ELISA in the retina and vitreous at concentrations of 24-48 mcg/mL, and was not present in the control rabbit eye.

For series [2] the following is noted: rabbit, in vivo.
The conditions of series [3]: rabbit, in vivo. The source holds these as a separate data set.
Protocol: The selected BDI-1 implants (from in-vitro release studies, FIG. 7) were sterilized, implanted in the capsular bag of rabbit's eyes. Two implants with different composition and dose were tested in-vivo in NZW rabbits to establish pharmacokinetics. Two rabbits were sacrificed at 2, 6, 10, 15 days and various tissue samples (aqueous humor, vitreous humor, IOL, iris/ciliary body and retina/choroid) were collected and samples were analyzed by a validated LC/MS/MS method.
A total of 8 animals (16 eyes) received the implant containing 120 μg of DXM.

For the compound bevacizumab [AVASTIN®], the “concentration in the retina and vitreous by ELISA” value in series [1] fell in the range of 24000 to 48000 ng/mL.
`C[C@@H]1C[C@H]2[C@@H]3CCC4=CC(=O)C=C[C@]4(C)[C@@]3(F)[C@@H](O)C[C@]2(C)[C@@]1(O)C(=O)CO` [dexamethasone]: the “direction of dexamethasone flow from the endocapsular space” value was “bidirectional from the endocapsular space into both the anterior and posterior chambers” in series [2]; “bidirectional from the endocapsular space into both the anterior and posterior chambers” in series [3].
